Test results from US20230049130A1, “DEUCRAVACITINIB CRYSTAL FORM, PREPARATION METHOD THEREFOR AND USE THEREOF” (CRYSTAL PHARMACEUTICAL (SUZHOU) CO., LTD., priority 2020, published 2023).

Legend:
Type in all cases: physicochemical
Bulk and tapped density = conditions: for Bulk density: about 500 mg powder in 5-mL cylinder; for Tapped density: tapped 1250 times
Protocol: About 500 mg of powder were added into a 5-mL measuring cylinder and bulk volume was recorded. Then the powder was tapped for 1250 times by ZS-2E tap density tester to make it in the tightest state and the tapped volume was recorded. The bulk density and tapped density were calculated.

[1] = Kinetic solubility in SGF, FeSSIF and FaSSIF (HPLC)
Protocol: When solubility test is used to predict the in vivo performance of a drug, it is critical to simulate in vivo conditions as closely as possible. Simulated gastric fluid (SGF), Fed-state simulated intestinal fluid (FeSSIF) and Fasted-state simulated intestinal fluid (FaSSIF) can be used to simulate the conditions in vivo and predict the effects of eating, thus solubilities in these media are closer to those in vivo.
15-20 mg of Form CSIII of the present disclosure and 15-20 mg of Form A were suspended into 2.5 mL of SGF, 2.5 mL of FeSSIF, and 2.5 mL of FaSSIF to get suspensions. After equilibrated for 1 h and 4 h, concentrations of these solutions were measured by HPLC.

[2] = Physical stability under pressure (tableting, XRPD); conditions: compressed under 5 kN, 10 kN and 20 kN
Text: A certain amount of Form CSIII was compressed into tablets under 5 kN, 10 kN and 20 kN with suitable tableting die. Crystalline forms before and after tableting were checked by XRPD.

[3] = Stability of Form CSIII on storage (XRPD, HPLC purity); conditions: for Crystalline form after storage: XRPD
Protocol: Approximately 5 mg of Form CSIII samples was stored under different conditions of 25° C./60%RH, 40° C./75%RH, and 60° C./75%RH. Crystalline form and chemical purity were checked by XRPD and HPLC, respectively.

[4] = Physical stability upon grinding (XRPD); conditions: ground manually 5 minutes in a mortar
Protocol: Form CSIII sample was grounded manually for 5 minutes in a mortar. Crystalline forms before and after grinding were checked by XRPD.

[5] = Physical stability upon humidity change (DVS, XRPD); conditions: cycle of 0%-95%-0%RH at 25° C.
Protocol: Dynamic Vapor Sorption (DVS) is measured via an SMS (Surface Measurement Systems Ltd.) intrinsic DVS instrument. Its control software is DVS- Intrinsic control software, and its analysis software is DVS-Intrinsic Analysis software. Typical Parameters for DVS test are as follows: • Temperature: 25° C. • Gas and flow rate: N2, 200 mL/min • RH range: 0% RH to 95% RH
Dynamic vapor sorption (DVS) was applied to test the stability of Form CSIII. A certain amount of Form CSIII was tested in a cycle of 0%-95%-0%RH at 25° C.

[6] = applicant's characterisation of repeated prior-art form

Q: What does the source list for `[2H]C([2H])([2H])NC(=O)c1nnc(NC(=O)C2CC2)cc1Nc1cccc(-c2ncn(C)n2)c1OC` [Form A, 6-(cyclopropanecarboxamido)-4-((2-methoxy-3-(1-methyl-1H-1,2,4-triazol-3-yl)phenyl)amino)-N-(methyl-d3) pyridazine-3-carboxamide, reference compound]?
A: Bulk density (Bulk and tapped density): 0.3899 g/mL; Density (in words) (Bulk and tapped density; [6]): low density; Tapped density (Bulk and tapped density): 0.5199 g/mL; Concentration ([1]; FaSSIF, equilibrated 1 hour): 13.5 µg/mL; Concentration ([1]; FaSSIF, equilibrated 4 hours): 13.6 µg/mL; Concentration ([1]; FeSSIF, equilibrated 1 hour): 82.3 µg/mL; Concentration ([1]; FeSSIF, equilibrated 4 hours): 68.8 µg/mL; Concentration ([1]; SGF, equilibrated 1 hour): 1114.1 µg/mL; Concentration ([1]; SGF, equilibrated 4 hours): 617.2 µg/mL; Solubility (in words) [1, 6]: poor solubility

Q: With `[2H]C([2H])([2H])NC(=O)c1nnc(NC(=O)C2CC2)cc1Nc1cccc(-c2ncn(C)n2)c1OC` [Form CSIII, 6-(cyclopropanecarboxamido)-4-((2-methoxy-3-(1-methyl-1H-1,2,4-triazol-3-yl)phenyl)amino)-N-(methyl-d3) pyridazine-3-carboxamide] as the compound, how does the “Crystalline state after tableting” value [2] read?
A: Its value is “does not change”.

Q: What about the Bulk density (Bulk and tapped density) of the same compound?
A: Its Bulk density is 0.4276 g/mL.

Q: What about the Tapped density (Bulk and tapped density) of the same compound?
A: Its Tapped density is 0.5987 g/mL.

Q: And the “Time stable on storage” value ([3]; 25° C./60% RH)?
A: The value was “at least 3 months”.

Q: And the “Crystalline form after storage” value ([3]; 25° C./60%RH (open), 3 months)?
A: The value was “Form CSIII”.

Q: And the “Crystalline form after storage” value ([3]; 25° C./60%RH (sealed), 3 months)?
A: The value was “Form CSIII”.

Q: And the “Time stable on storage” value ([3]; 40° C./75% RH)?
A: The value was “at least 3 months”.

Q: And the “Crystalline form after storage” value ([3]; 40° C./75%RH (open), 3 months)?
A: The value was “Form CSIII”.

Q: And the “Crystalline form after storage” value ([3]; 40° C./75%RH (sealed), 3 months)?
A: The value was “Form CSIII”.

Q: And the “Time stable on storage” value ([3]; 60° C./75% RH)?
A: The value was “at least one month”.

Q: What about the “Change in chemical purity during storage” value ([3]; 60° C./75% RH, one month, open condition, HPLC) of the same compound?
A: The value was 0.07%.

Q: And the “Crystalline form after storage” value ([3]; 60° C./75%RH (open), one month)?
A: The value was “Form CSIII”.

Q: And the “Crystalline form after storage” value ([3]; 60° C./75%RH (sealed), one month)?
A: Its value is “Form CSIII”.

Q: What about the “Crystalline state after grinding” value [4] of the same compound?
A: The value was “does not change”.

Q: And the Concentration ([1]; FaSSIF, equilibrated 1 hour)?
A: Its Concentration is 49 µg/mL.

Q: And the “Solubility relative to that of Form A” value ([1]; FaSSIF, equilibrated 1 hour)?
A: The value was 3.6 times.

Q: And the Concentration ([1]; FaSSIF, equilibrated 4 hours)?
A: Its Concentration is 55.7 µg/mL.

Q: And the “Solubility relative to that of Form A” value ([1]; FaSSIF, equilibrated 4 hours)?
A: The value was 4.1 times.

Q: What about the Concentration ([1]; FeSSIF, equilibrated 1 hour) of the same compound?
A: Its Concentration is 193.6 µg/mL.

Q: And the Concentration ([1]; FeSSIF, equilibrated 4 hours)?
A: Its Concentration is 179.3 µg/mL.

Q: And the Concentration ([1]; SGF, equilibrated 1 hour)?
A: Its Concentration is 1582.4 µg/mL.

Q: And the Concentration ([1]; SGF, equilibrated 4 hours)?
A: Its Concentration is 1296.8 µg/mL.

Q: And the “Crystalline state after DVS test” value [5]?
A: Its value is “does not change”.
